Data reported in patent US20190247361A1, “OXYTOCIN ANTAGONIST DOSING REGIMENS FOR PROMOTING EMBRYO IMPLANTATION AND PREVENTING MISCARRIAGE” (ObsEva S.A., priority 2016, published 2019).

Tests used:
Assay type in all cases: in vitro ADME
[1] = molecular target: CYP2C19 (Homo sapiens, UniProt P33261); experiment: metabolism by CYP2C19 isoform; settings: for Compound Remaining (% of compound present at t = 0 min): 5 μM
Method: (§1) At five time points over the course of a 45 minute experiment, the compounds were analyzed by LC-MS/MS. The percentage of each compound remaining at each time point, along with the metabolic half-lives of each compound in the presence of each cytochrome P450 isoform, are indicated in Tables 10-12, below.

[2] = molecular target: CYP2D6 (Homo sapiens, UniProt P10635); experiment: metabolism by CYP2D6 isoform; settings: for Compound Remaining (% of compound present at t = 0 min): 5 μM
Chain of CYP2D6 (P10635 whole entry, canonical isoform): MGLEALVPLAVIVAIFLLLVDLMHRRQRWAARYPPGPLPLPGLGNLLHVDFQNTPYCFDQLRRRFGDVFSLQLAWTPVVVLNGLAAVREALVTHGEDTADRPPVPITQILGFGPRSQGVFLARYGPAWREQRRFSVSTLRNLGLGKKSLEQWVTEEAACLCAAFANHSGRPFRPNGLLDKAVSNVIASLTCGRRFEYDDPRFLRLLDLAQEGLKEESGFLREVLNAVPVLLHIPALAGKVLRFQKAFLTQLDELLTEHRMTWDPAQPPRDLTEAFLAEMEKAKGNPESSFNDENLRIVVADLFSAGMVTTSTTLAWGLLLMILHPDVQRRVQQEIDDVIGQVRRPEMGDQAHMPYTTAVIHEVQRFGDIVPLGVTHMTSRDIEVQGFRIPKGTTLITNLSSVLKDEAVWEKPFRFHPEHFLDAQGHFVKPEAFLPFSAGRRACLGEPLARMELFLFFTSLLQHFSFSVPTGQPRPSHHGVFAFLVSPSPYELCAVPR
Method: as §1

[3] = system: cytochrome P450 in combination with UGT; experiment: microsomal stability, pooled liver microsomes, cytochrome P450 in combination with UGT; settings: 45 minute experiment
Method: (§2) At five time points over the course of a 45 minute experiment, the compounds were analyzed by liquid chromatography and tandem mass spectrometry (LC-MS/MS). Intrinsic clearance values (CLint) with standard error (SE CLint) and metabolic half-life (t1/2) were calculated and are indicated in Table 9, below.

[4] = molecular target: CYP3A4 (Homo sapiens, UniProt P08684); experiment: metabolism by CYP3A4 isoform; settings: for Compound Remaining (% of compound present at t = 0 min): 5 μM
Chain of CYP3A4 (P08684 whole entry, canonical isoform): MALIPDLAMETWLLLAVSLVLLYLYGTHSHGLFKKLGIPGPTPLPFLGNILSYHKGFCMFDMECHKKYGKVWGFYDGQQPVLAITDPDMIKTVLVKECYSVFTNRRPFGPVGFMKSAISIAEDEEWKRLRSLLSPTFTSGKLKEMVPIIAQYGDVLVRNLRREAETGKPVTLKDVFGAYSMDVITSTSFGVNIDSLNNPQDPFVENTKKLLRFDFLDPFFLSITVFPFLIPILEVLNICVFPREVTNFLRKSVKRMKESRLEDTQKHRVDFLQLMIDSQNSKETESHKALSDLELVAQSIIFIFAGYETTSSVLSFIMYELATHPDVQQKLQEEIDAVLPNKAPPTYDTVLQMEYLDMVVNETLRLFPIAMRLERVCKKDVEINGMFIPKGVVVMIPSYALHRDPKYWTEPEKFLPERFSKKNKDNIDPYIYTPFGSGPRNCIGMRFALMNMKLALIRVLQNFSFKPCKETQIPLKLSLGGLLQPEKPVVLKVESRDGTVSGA
Method: as §1

[5] = system: cytochrome P450; experiment: microsomal stability, pooled liver microsomes, cytochrome P450 alone; settings: 45 minute experiment
Method: as §2

Chain of CYP2C19 (P33261 whole entry, canonical isoform): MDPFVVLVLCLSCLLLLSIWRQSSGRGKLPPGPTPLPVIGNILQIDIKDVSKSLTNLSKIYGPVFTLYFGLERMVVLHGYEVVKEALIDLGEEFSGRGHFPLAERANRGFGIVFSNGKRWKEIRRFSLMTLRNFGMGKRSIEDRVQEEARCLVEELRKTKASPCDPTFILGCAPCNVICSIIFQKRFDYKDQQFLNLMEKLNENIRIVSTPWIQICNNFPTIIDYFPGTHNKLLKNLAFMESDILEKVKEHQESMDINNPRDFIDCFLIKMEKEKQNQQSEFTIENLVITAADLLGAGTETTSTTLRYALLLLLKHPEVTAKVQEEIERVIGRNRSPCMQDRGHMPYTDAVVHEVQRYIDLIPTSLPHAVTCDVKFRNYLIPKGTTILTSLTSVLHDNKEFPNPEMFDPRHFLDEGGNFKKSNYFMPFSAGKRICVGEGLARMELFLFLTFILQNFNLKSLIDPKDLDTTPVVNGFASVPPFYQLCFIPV

## CO/N=C1\C[C@@H](CO)N(C(=O)c2ccc(-c3ccccc3C)cc2)C1 [(3E) isomer, (3E,5S)-5-(hydroxymethyl)-1-[(2′-methyl-1,1′-biphenyl-4-yl)carbonyl]pyrrolidin-3-one O-methyloxime, reference compound]
[1]; 0 min
  Compound Remaining (% of compound present at t = 0 min): 100%
[1]; 5 min
  Compound Remaining (% of compound present at t = 0 min): 87.6%
[1]; 15 min
  Compound Remaining (% of compound present at t = 0 min): 82.7%
[1]; 30 min
  Compound Remaining (% of compound present at t = 0 min): 57.1%
[1]; 45 min
  Compound Remaining (% of compound present at t = 0 min): 47.4%
[1]; human
  half-life at 5 μM: 0.69 h
[2]; 0 min
  Compound Remaining (% of compound present at t = 0 min): 100%
[2]; 5 min
  Compound Remaining (% of compound present at t = 0 min): 49.3%
[2]; 15 min
  Compound Remaining (% of compound present at t = 0 min): 14.1%
[2]; 30 min
  Compound Remaining (% of compound present at t = 0 min): 2.43%
[2]; 45 min
  Compound Remaining (% of compound present at t = 0 min): 0.845%
[2]; human
  half-life at 5 μM: 5.62 min
[3]; read-out: CLint, Metabolic Stability - CYP/UGT
  microsomal CLint at 3 μM: 5.38 µL/min/mg
[3]; read-out: t1/2, Metabolic Stability - CYP/UGT
  half-life at 3 μM: 4.3 h
[4]; 0 min
  Compound Remaining (% of compound present at t = 0 min): 100%
[4]; 5 min
  Compound Remaining (% of compound present at t = 0 min): 107%
[4]; 15 min
  Compound Remaining (% of compound present at t = 0 min): 88.8%
[4]; 30 min
  Compound Remaining (% of compound present at t = 0 min): 92.5%
[4]; 45 min
  Compound Remaining (% of compound present at t = 0 min): 92.2%
[4]; human
  half-life at 5 μM: 4.68 h
[5]; read-out: CLint, Metabolic Stability - CYP
  microsomal CLint at 3 μM: 6.4 µL/min/mg
[5]; read-out: t1/2, Metabolic Stability - CYP
  half-life at 3 μM: 3.6 h
